Experimental data reported in patent publication US20220380383A1, “NEUROPROTECTIVE PDI MODULATING SMALL MOLECULES AND METHODS OF USE THEREOF” (THE TRUSTEES OF COLUMBIA UNIVERSITY IN THE CITY OF NEW YORK, priority 2018, published 2022).

Columns and labels:
[1] = system: neuronal redox state (roGFP2); assay: roGFP2 redox reporter in primary neurons; assay type: cell-based
Method: […]. Rat coronal brain slice explants co-transfected with YFP and Tau-4R (FIG. 16B) or striatal brain slice explants co-transfected with YFP and mHTT (FIG. 16C) were treated with LC-43 or DMSO carrier-only for 3 days. The respective regions of each brain slice were then scored for numbers of healthy (FIG. 16B) pyramidal or (FIG. 16C) medium spiny neurons remaining. Data are normalized to the negative control condition set to 100% and plotted as means±SEM. In FIG. 16D, The confocal images shown are maximal z-stacks of 0.5 μm steps (˜20 images per stack). (Bottom) Reduction of neuronal redox state by LC-43. Left, Primary neurons were co-transfected with mCherry (to positively identify transfected neurons) and the genetically encoded ratiometric redox reporter roGFP2. Four days later, the culture medium was changed into an identical formulation except without conventional antioxidant additives. 24 hours after this medium change, LOC-43 or DMSO carrier-only were added to the neurons and images were taken after 30 minutes or 24 hours of treatment as indicated. Imaging was done using a Leica SP5 inverted confocal microscope through a 63× water-immersion objective. Images of 40 individual neurons for each condition were collected at 405 and 488 nm and analysis of the 405/488 ratio for each image pair was done using CellProfiler (Broad Institute).
As mentioned, we synthesized several fluorine-containing analogs of LOC14 (analogs LC-43 and LC-40). Addition of fluorine was the only modification that was tolerated at the ortho position without a complete loss of activity in cells and in targeting PDI in vitro (Table 9). […] Additionally, we evaluated LC-43 using a genetically encoded redox reporter transfected into neurons. […] In contrast, treatment with the non-selective reducing agent dithiothreitol (DTT) produces an immediate and dramatic reduction in the roGFP2 fluorescence ratio that leads rapidly to cell degeneration and death (FIG. 16D). […]

[2] = system: uninduced PC12 cells not expressing mHTTQ103; assay: General cell toxicity in PC12 cell culture assay; assay type: cell-based
Method: Neuroprotection was assessed by each compound's ability to rescue cells from mutant-huntingtin-induced cell death (“Ind Q103” cells; blue). General cell toxicity of each compound was assessed in uninduced cells not expressing mutant-huntingtin protein (“Unind Q103” cells; red). NMP, DMSO, LOC14 in NMP and LOC14 in DMSO were used as controls.
Data from cells induced to express mHTT^Q103 (blue) and cells not expressing mHTT^Q103 (red) are plotted as mean percent of DMSO-treated uninduced cells±SD with n=3.
The follow-up testing of primary screen hits was performed in a similar way. Fresh powder stocks of primary hits were re-ordered from vendors, dissolved in DMSO and tested in a two-fold serial dilution across 10 wells in both tebufenozide-induced and uninduced PC12 mHTT^Q103 cells. Dose-response curves were plotted as mean±SD and fit to either four-parameter sigmoidal (for uninduced cells) or bell-shaped (induced) function using Prism (GraphPad Software).

Adrenergic β1 = Adrenergic β1 (Homo sapiens, UniProt P08588); assay: Off-target panel, Adrenergic β1; assay type: binding; details: Conc. 3 μM
Chain of Adrenergic β1 (P08588 whole entry): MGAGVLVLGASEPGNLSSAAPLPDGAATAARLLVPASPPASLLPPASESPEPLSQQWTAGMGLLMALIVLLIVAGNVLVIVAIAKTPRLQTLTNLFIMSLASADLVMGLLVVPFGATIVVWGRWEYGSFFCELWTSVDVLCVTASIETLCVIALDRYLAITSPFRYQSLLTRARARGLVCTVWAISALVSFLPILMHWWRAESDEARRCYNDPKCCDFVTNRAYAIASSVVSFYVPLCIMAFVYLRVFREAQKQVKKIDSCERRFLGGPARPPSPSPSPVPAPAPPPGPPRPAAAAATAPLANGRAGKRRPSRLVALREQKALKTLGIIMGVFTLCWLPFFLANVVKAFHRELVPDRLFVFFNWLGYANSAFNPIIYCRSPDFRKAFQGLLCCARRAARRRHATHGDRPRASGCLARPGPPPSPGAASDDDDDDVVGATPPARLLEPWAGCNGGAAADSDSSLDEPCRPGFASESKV

Dopamine D1 = Dopamine D1 (Homo sapiens, UniProt P21728); assay: Off-target panel, Dopamine D1; assay type: binding; details: Conc. 3 μM
Chain of Dopamine D1 (P21728 whole entry): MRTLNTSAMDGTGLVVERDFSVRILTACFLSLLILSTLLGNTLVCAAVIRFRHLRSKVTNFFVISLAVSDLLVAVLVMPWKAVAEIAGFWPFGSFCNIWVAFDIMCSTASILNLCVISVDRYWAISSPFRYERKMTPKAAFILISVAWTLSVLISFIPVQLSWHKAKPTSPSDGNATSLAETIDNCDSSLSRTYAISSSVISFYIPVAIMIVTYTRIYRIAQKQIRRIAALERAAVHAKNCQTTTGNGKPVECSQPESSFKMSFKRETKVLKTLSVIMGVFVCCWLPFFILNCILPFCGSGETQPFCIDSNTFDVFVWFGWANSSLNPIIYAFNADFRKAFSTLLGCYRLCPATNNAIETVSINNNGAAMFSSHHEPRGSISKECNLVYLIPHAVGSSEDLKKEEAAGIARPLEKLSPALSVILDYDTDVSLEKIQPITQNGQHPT

[3] = biological target: Nicotinic Acetylcholine α1, Bungarotoxin (Homo sapiens, UniProt P02708+P07510+Q07001); assay: Off-target panel, Nicotinic Acetylcholine α1; assay type: binding; details: read-out: % Inh.
Chain of Nicotinic Acetylcholine α1, Bungarotoxin (P11230 24-501): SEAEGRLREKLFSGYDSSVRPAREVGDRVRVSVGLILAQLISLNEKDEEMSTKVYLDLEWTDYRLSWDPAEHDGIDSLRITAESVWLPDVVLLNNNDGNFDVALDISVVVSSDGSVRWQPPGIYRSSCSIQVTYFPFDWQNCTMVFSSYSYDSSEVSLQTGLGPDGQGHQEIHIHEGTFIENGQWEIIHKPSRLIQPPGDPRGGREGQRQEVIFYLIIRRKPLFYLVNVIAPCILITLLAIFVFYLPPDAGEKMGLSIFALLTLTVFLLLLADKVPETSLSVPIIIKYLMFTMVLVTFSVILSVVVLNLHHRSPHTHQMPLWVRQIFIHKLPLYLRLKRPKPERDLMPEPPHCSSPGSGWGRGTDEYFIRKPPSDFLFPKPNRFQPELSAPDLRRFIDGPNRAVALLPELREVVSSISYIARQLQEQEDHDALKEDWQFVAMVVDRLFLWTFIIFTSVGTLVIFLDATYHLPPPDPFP
Chain of Nicotinic Acetylcholine α1, Bungarotoxin (P07510 23-517): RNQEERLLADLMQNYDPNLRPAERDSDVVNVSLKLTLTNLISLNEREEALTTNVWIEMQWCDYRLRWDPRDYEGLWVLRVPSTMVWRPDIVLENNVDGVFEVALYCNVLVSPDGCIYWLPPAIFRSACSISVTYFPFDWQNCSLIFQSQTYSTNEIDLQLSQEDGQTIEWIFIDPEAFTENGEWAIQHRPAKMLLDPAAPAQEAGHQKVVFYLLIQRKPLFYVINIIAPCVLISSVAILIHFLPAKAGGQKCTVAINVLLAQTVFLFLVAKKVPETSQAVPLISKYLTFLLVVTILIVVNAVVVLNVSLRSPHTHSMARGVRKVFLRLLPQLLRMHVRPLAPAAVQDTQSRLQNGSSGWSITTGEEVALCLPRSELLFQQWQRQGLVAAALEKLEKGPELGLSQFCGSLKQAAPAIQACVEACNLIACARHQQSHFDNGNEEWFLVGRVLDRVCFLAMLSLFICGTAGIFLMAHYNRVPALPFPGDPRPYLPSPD
Chain of Nicotinic Acetylcholine α1, Bungarotoxin (Q07001 22-517): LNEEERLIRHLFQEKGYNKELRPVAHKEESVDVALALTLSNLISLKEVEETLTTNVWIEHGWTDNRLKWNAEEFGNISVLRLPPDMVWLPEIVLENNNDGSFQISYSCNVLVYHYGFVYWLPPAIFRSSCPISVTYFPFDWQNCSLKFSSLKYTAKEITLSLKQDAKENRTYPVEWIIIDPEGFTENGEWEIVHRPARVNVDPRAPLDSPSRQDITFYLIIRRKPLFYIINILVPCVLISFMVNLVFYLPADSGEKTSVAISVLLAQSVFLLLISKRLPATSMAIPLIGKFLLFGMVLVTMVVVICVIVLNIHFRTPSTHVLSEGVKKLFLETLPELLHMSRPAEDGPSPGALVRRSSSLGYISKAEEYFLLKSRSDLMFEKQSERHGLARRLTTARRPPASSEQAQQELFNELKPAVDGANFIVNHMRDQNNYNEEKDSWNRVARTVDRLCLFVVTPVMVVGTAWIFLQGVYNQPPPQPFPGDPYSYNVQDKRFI
Chain of Nicotinic Acetylcholine α1, Bungarotoxin (P02708 21-457): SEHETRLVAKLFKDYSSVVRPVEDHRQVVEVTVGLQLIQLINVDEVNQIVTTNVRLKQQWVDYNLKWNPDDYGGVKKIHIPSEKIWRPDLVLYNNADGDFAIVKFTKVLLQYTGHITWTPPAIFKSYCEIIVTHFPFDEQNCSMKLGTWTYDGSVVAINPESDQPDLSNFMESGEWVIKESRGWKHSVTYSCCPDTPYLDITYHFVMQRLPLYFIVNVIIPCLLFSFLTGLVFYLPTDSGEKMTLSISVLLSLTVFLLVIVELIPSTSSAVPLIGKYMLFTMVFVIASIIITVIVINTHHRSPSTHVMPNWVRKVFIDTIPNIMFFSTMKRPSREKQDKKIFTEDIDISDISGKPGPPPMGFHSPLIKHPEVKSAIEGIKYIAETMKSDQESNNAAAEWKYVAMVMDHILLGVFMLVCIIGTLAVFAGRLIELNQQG

[4] = biological target: Serotonin (5-Hydroxytryptamine) 5-HT2B (Homo sapiens, UniProt P41595); assay: Off-target panel, Serotonin 5-HT2B; assay type: binding; details: Conc. 3 μM
Chain of Serotonin (5-Hydroxytryptamine) 5-HT2B (P41595 whole entry): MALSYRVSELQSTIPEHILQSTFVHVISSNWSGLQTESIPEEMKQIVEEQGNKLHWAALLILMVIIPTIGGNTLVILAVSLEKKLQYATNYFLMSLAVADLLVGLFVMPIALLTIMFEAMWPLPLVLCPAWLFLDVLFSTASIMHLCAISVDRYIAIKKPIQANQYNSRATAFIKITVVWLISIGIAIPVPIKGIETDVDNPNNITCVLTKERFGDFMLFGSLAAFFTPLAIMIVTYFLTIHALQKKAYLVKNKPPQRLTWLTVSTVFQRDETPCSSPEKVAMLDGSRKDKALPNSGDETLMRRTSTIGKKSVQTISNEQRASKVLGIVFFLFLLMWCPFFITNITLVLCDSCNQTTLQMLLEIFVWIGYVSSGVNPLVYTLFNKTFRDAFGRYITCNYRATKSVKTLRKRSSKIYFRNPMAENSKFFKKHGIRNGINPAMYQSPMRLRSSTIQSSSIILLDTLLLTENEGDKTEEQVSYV

VEGFR2 = biological target: T1, VEGFR2 (Homo sapiens, UniProt P35968); assay: Safety47 panel kinase VEGFR2; assay type: biochemical; details: Inhibitor mode; 3 μM
T1 construct: CEREP (CRO, Safety47 panel)
T1 sequence (P35968 20-1356): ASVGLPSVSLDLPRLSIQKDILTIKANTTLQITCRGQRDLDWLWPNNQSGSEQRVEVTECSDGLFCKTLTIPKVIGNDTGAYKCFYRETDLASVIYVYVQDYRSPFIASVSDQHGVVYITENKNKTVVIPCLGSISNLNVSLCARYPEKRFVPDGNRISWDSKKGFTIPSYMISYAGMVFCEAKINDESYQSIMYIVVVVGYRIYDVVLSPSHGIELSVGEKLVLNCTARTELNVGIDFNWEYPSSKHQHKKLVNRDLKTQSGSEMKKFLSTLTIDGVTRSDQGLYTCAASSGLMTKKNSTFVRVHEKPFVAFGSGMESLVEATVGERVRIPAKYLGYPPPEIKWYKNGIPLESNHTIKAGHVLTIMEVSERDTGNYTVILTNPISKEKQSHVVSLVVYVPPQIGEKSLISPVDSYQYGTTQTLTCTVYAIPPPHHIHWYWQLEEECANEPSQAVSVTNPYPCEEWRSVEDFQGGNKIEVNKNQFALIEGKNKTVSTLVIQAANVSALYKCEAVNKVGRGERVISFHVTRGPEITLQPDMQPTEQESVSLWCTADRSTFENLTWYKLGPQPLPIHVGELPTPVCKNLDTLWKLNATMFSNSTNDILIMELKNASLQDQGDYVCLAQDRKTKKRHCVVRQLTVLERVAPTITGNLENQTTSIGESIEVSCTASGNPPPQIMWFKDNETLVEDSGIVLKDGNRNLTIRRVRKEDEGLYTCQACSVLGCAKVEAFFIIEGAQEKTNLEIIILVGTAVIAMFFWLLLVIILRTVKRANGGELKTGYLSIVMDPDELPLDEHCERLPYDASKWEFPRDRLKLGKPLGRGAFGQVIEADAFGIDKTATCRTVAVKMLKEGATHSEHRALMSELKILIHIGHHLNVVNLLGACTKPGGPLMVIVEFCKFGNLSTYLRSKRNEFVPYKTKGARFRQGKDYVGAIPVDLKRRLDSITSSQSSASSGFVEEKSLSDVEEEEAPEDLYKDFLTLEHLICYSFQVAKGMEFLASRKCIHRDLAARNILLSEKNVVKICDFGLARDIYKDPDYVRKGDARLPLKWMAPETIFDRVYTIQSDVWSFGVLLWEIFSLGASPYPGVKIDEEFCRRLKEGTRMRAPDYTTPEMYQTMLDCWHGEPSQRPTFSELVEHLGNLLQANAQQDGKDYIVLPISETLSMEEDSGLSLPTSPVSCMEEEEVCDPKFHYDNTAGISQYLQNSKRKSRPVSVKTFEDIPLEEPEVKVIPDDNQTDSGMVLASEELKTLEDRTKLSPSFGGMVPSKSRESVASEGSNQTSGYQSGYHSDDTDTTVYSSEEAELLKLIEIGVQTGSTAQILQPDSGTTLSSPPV
Description: LOC14 was also submitted for testing in CEREP's Safety47 panel. CEREP is a CRO specializing in preclinical research, discovery and development of new pharmaceutical drugs.

Row | Compound | neuronal redox state (roGFP2) ([1]; 30 min treatment) | neuronal redox state (roGFP2) ([1]; 24 h treatment, 10 μM) | toxicity in PC12 cell culture assay [2] | inhibition at 3 µM (Adrenergic β1) | inhibition at 3 µM (Dopamine D1) | inhibition at 3 µM [3] | inhibition at 3 µM [4] | Average (VEGFR2)
1 | O=C(C1CC1)N1CCN(Cn2sc3c(F)cccc3c2=O)CC1 [LC-43] | no effect | measurable and significant reduction in neuronal redox state | decreased cellular toxicity |  |  |  |  | 
2 | O=C(C1CC1)N1CCN(Cn2sc3ccccc3c2=O)CC1 [LOC14] |  |  |  | 7% | 34% | 11% | 36% | 17.2
